Where “and” joins values, the source holds several entries; their conditions need not be identical. Equal entries are not always repeated. Toxic doses and inconclusive results are not listed.
Tested on: L1210 leukemia ip in BDF1 mice, survival T/C
Assay: NCI In Vivo Anticancer Drug Screen. Data for tumor model L1210 Leukemia (intraperitoneal) in B6D2F1 (BDF1) mice
Conditions: endpoint: mean survival time, higher = longer survival
Outline: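 Tumor was transplanted into mice, which were then dosed with test compound or vehicle alone. Survival was recorded for each group, and the treated figure was expressed relative to the control figure.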

[1] = dose: 100.0 mg/kg/injection, schedule: Q04DX003 (ip), vehicle: saline with Tween-80
[2] = dose: 200.0 mg/kg/injection, schedule: Q04DX003 (ip), vehicle: saline with Tween-80
[3] = dose: 400.0 mg/kg/injection, schedule: Q04DX003 (ip), vehicle: saline with Tween-80
[4] = dose: 100.0 mg/kg/injection, schedule: Q01DX009 (ip), vehicle: saline with Tween-80
[5] = dose: 200.0 mg/kg/injection, schedule: Q01DX009 (ip), vehicle: saline with Tween-80
[6] = dose: 400.0 mg/kg/injection, schedule: Q01DX009 (ip), vehicle: saline with Tween-80
[7] = dose: 100.0 mg/kg/injection, schedule: Q01DX001 (ip), vehicle: carboxymethylcellulose (CMC)
[8] = dose: 200.0 mg/kg/injection, schedule: Q01DX001 (ip), vehicle: carboxymethylcellulose (CMC)
[9] = dose: 400.0 mg/kg/injection, schedule: Q01DX001 (ip), vehicle: carboxymethylcellulose (CMC)
[10] = dose: 100.0 mg/kg/injection, schedule: Q04DX002 (ip), vehicle: Klucel (hydroxypropylcellulose) (HPC)
[11] = dose: 200.0 mg/kg/injection, schedule: Q04DX002 (ip), vehicle: Klucel (hydroxypropylcellulose) (HPC)
[12] = dose: 400.0 mg/kg/injection, schedule: Q04DX002 (ip), vehicle: Klucel (hydroxypropylcellulose) (HPC)
[13] = dose: 100.0 mg/kg/injection, schedule: Q01DX001 (ip), vehicle: Klucel (hydroxypropylcellulose) (HPC)
[14] = dose: 200.0 mg/kg/injection, schedule: Q01DX001 (ip), vehicle: Klucel (hydroxypropylcellulose) (HPC)
[15] = dose: 400.0 mg/kg/injection, schedule: Q01DX001 (ip), vehicle: Klucel (hydroxypropylcellulose) (HPC)
[16] = dose: 100.0 mg/kg/injection, schedule: Q01DX009 (ip), vehicle: saline
[17] = dose: 100.0 mg/kg/injection, schedule: Q04DX003 (ip), vehicle: saline
[18] = dose: 200.0 mg/kg/injection, schedule: Q01DX009 (ip), vehicle: saline
[19] = dose: 200.0 mg/kg/injection, schedule: Q04DX003 (ip), vehicle: saline
[20] = dose: 400.0 mg/kg/injection, schedule: Q01DX009 (ip), vehicle: saline
[21] = dose: 400.0 mg/kg/injection, schedule: Q04DX003 (ip), vehicle: saline
[22] = dose: 100.0 mg/kg/injection, schedule: Q04DX003 (ip), vehicle: Klucel (hydroxypropylcellulose) (HPC)
[23] = dose: 200.0 mg/kg/injection, schedule: Q04DX003 (ip), vehicle: Klucel (hydroxypropylcellulose) (HPC)
[24] = dose: 400.0 mg/kg/injection, schedule: Q04DX003 (ip), vehicle: Klucel (hydroxypropylcellulose) (HPC)
[25] = dose: 100.0 mg/kg/injection, schedule: Q01DX009 (ip), vehicle: Klucel (hydroxypropylcellulose) (HPC)
[26] = dose: 200.0 mg/kg/injection, schedule: Q01DX009 (ip), vehicle: Klucel (hydroxypropylcellulose) (HPC)
[27] = dose: 400.0 mg/kg/injection, schedule: Q01DX009 (ip), vehicle: Klucel (hydroxypropylcellulose) (HPC)

C/C=C/C(=O)Nc1cccc(OC(=O)NC(C)CC)c1 (stereo not drawn)
T/C [1]: 98 % of control
T/C [2]: 87 % of control
T/C [3]: 93 % of control

CCN1CCC2=C(CCCC2O)C1 (stereo not drawn)
T/C (dose: 75.0 mg/kg/injection, schedule: Q01DX001 (ip), vehicle: steriod suspending solution): 104 % of control
T/C (dose: 150.0 mg/kg/injection, schedule: Q01DX001 (ip), vehicle: steriod suspending solution): 98 % of control

CC12CCC(F)(CC1)CC2=O
T/C (dose: 100.0 mg/kg/injection, schedule: Q04DX002 (ip), vehicle: saline): 98 % of control
T/C (dose: 200.0 mg/kg/injection, schedule: Q04DX002 (ip), vehicle: saline): 98 % of control
T/C (dose: 400.0 mg/kg/injection, schedule: Q04DX002 (ip), vehicle: saline): 102 % of control

CNC(=O)c1ccc(NC(=O)Nc2cccc(C3=NCCN3)c2)cc1NC(=O)Nc1cccc(C2=NCCN2)c1
T/C (dose: 4.5 mg/kg/injection, schedule: Q01DX Z (ip), vehicle: carboxymethylcellulose (CMC)): 97 % of control
T/C (dose: 9.0 mg/kg/injection, schedule: Q01DX Z (ip), vehicle: carboxymethylcellulose (CMC)): 113 % of control
T/C (dose: 36.0 mg/kg/injection, schedule: Q01DX Z (ip), vehicle: carboxymethylcellulose (CMC)): 160 % of control

Cc1ccc(Cl)c(OCc2cc(=O)[nH]c(=O)[nH]2)c1
T/C (dose: 10.0 mg/kg/injection, schedule: Q04DX003 (ip), vehicle: saline with Tween-80): 101 % of control
T/C (dose: 20.0 mg/kg/injection, schedule: Q04DX003 (ip), vehicle: saline with Tween-80): 92 % of control
T/C (dose: 40.0 mg/kg/injection, schedule: Q04DX003 (ip), vehicle: saline with Tween-80): 95 % of control

CCCCCCCCCCCCCC(=O)CC
T/C (dose: 90.0 mg/kg/injection, schedule: Q01DX009 (ip), vehicle: saline with Tween-80): 98 % of control
T/C [4]: 92 % of control and 96 % of control
T/C [1]: 96 % of control
T/C (dose: 135.0 mg/kg/injection, schedule: Q01DX009 (ip), vehicle: saline with Tween-80): 87 % of control
T/C [5]: 87 % of control and 88 % of control
T/C [2]: 96 % of control
T/C (dose: 300.0 mg/kg/injection, schedule: Q01DX009 (ip), vehicle: saline with Tween-80): 92 % of control
T/C [6]: 97 % of control and 105 % of control
T/C [3]: 102 % of control

CCC(C)N1OC1c1ccccc1 (stereo not drawn)
T/C [7]: 106 % of control
T/C [8]: 103 % of control
T/C [9]: 101 % of control

Nc1c([N+](=O)[O-])cc(Cl)c(Cl)c1F
T/C [10]: 101 % of control
T/C [11]: 96 % of control
T/C [12]: 96 % of control

CCOC(=O)/C=C/c1cccc(O)c1
T/C (dose: 100.0 mg/kg/injection, schedule: Q01DX001 (ip), vehicle: gum acacia): 106 % of control
T/C (dose: 200.0 mg/kg/injection, schedule: Q01DX001 (ip), vehicle: gum acacia): 110 % of control
T/C (dose: 400.0 mg/kg/injection, schedule: Q01DX001 (ip), vehicle: gum acacia): 97 % of control

COC(=O)/C=C/Nc1ccccc1
T/C (dose: 100.0 mg/kg/injection, schedule: Q04DX003 (ip), vehicle: other): 98 % of control
T/C (dose: 200.0 mg/kg/injection, schedule: Q04DX003 (ip), vehicle: other): 98 % of control
T/C (dose: 400.0 mg/kg/injection, schedule: Q04DX003 (ip), vehicle: other): 94 % of control

CC(C)C(C)/C=C\C(C)C1CCC2C3=CCC4CC(=O)CCC4(C)C3CCC21C (stereo not drawn)
T/C (dose: 50.0 mg/kg/injection, schedule: Q01DX001 (ip), vehicle: Klucel (hydroxypropylcellulose) (HPC)): 88 % of control
T/C [13]: 93 % of control
T/C [14]: 88 % of control
T/C [15]: 97 % of control

COC1CC(OS(=O)(=O)c2ccc(C)cc2)C(O)C(C)O1 (stereo not drawn)
T/C (dose: 100.0 mg/kg/injection, schedule: Q01DX001 (ip), vehicle: saline): 103 % of control
T/C [4]: 96 % of control
T/C [1]: 100 % of control
T/C (dose: 200.0 mg/kg/injection, schedule: Q01DX001 (ip), vehicle: saline): 94 % of control
T/C [5]: 94 % of control
T/C [2]: 100 % of control
T/C (dose: 400.0 mg/kg/injection, schedule: Q01DX001 (ip), vehicle: saline): 100 % of control
T/C [6]: 96 % of control
T/C [3]: 97 % of control

CCOC(=N)N1C(N)=NC(=O)C1c1ccccc1 (stereo not drawn)
T/C [16]: 105 % of control
T/C [17]: 110 % of control
T/C [18]: 110 % of control
T/C [19]: 103 % of control
T/C [20]: 96 % of control
T/C [21]: 105 % of control

COc1ccc(/C=C/C(=O)c2ccc3c(c2)OCO3)cc1OC
T/C [4]: 101 % of control
T/C [5]: 94 % of control
T/C [6]: 95 % of control

CCCCCCCCCCCCCCOc1ccc(Cc2ccccc2)cc1
T/C [22]: 91 % of control
T/C [23]: 90 % of control
T/C [24]: 88 % of control

O=C1NC(=O)C(Cc2ccccc2)(Cc2ccccc2)C(=O)N1Cc1ccccc1
T/C [7]: 90 % of control
T/C [8]: 90 % of control
T/C [9]: 98 % of control

CN(C)c1cc(F)c(C=O)cc1[N+](=O)[O-]
T/C [16]: 100 % of control
T/C [17]: 113 % of control
T/C [18]: 105 % of control
T/C [19]: 105 % of control
T/C [20]: 100 % of control
T/C [21]: 98 % of control

Cc1ccnc(NC(C#N)c2ccccc2)c1 (stereo not drawn)
T/C (dose: 12.5 mg/kg/injection, schedule: Q01DX009 (ip), vehicle: saline with Tween-80): 93 % of control
T/C (dose: 25.0 mg/kg/injection, schedule: Q01DX009 (ip), vehicle: saline with Tween-80): 97 % of control
T/C (dose: 50.0 mg/kg/injection, schedule: Q01DX009 (ip), vehicle: saline with Tween-80): 93 % of control and 100 % of control

Nc1cccc2cc3ccccc3nc12
T/C (dose: 25.0 mg/kg/injection, schedule: Q04DX003 (ip), vehicle: Klucel (hydroxypropylcellulose) (HPC)): 102 % of control
T/C (dose: 50.0 mg/kg/injection, schedule: Q04DX003 (ip), vehicle: Klucel (hydroxypropylcellulose) (HPC)): 92 % of control
T/C [22]: 86 % of control

CCC(Cc1c[nH]c2ccccc12)[N+](=O)[O-] (stereo not drawn)
T/C [25]: 104 % of control
T/C [26]: 111 % of control
T/C [27]: 113 % of control

C/C(=N\N=C(N)N)c1cccs1
T/C (dose: 7.0 mg/kg/injection, schedule: Q01DX Z (oral), vehicle: carboxymethylcellulose (CMC)): 101 % of control
T/C (dose: 15.0 mg/kg/injection, schedule: Q01DX Z (oral), vehicle: carboxymethylcellulose (CMC)): 91 % of control

N/C(Cc1ccc(Cl)cc1)=N/O
T/C [22]: 104 % of control
T/C [23]: 102 % of control

O=C1N(c2ccccc2)C(c2ccncc2)C1(c1ccccc1)c1ccccc1 (stereo not drawn)
T/C (dose: 87.5 mg/kg/injection, schedule: Q04DX003 (ip), vehicle: gum acacia): 91 % of control
T/C (dose: 175.0 mg/kg/injection, schedule: Q04DX003 (ip), vehicle: gum acacia): 91 % of control
T/C (dose: 350.0 mg/kg/injection, schedule: Q04DX003 (ip), vehicle: gum acacia): 91 % of control

O=C(OC(C1COCO1)C(O)C1COCO1)c1ccccc1 (stereo not drawn)
T/C [13]: 96 % of control
T/C [14]: 105 % of control
T/C [15]: 107 % of control

O=C(NC(=O)C1CC1)C1CC1
T/C [4]: 94 % of control
T/C [1]: 106 % of control
T/C [5]: 100 % of control
T/C [2]: 87 % of control
T/C [6]: 100 % of control
T/C [3]: 93 % of control

O=C(O)c1ccc(NCc2cccc([N+](=O)[O-])c2)cc1
T/C [13]: 100 % of control
T/C [25]: 96 % of control
T/C [10]: 100 % of control and 105 % of control
T/C [22]: 99 % of control
T/C [14]: 104 % of control
T/C [26]: 106 % of control and 86 % of control
T/C [11]: 101 % of control and 102 % of control
T/C [23]: 108 % of control
T/C [15]: 100 % of control
T/C [27]: 96 % of control and 98 % of control
T/C [12]: 99 % of control and 103 % of control
T/C [24]: 98 % of control

CCCCn1nnc2ccc([N+](=O)[O-])cc2c1=O
T/C [25]: 92 % of control
T/C [26]: 87 % of control

Reference: PubChem BioAssay AID248 (DTP/NCI, 2004)
